Source: ChEMBL document CHEMBL5465560, “Selectivity Literature for EUbOPEN Chemogenomic Library” (2024)

How the values were obtained:
[1] = molecular target: T1, Dual specificity mitogen-activated protein kinase kinase 3 (Homo sapiens) (UniProt P46734); assay: Selectivity interaction (KinomeScan (DiscoverX)) EUB0000229b MAP2K3; conditions: at 10 µM
T1 sequence (whole entry): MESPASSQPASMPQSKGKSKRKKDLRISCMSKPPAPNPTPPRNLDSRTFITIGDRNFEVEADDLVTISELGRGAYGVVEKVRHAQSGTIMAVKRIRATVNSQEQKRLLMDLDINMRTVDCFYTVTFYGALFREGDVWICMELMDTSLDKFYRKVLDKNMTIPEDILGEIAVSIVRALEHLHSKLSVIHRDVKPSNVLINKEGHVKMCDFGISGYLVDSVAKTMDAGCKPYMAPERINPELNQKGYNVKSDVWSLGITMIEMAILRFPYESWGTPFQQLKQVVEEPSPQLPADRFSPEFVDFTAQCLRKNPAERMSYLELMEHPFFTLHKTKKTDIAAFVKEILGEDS

[2] = molecular target: Activated CDC42 kinase 1 (Homo sapiens, UniProt Q07912); assay: Selectivity interaction (KinomeScan (DiscoverX)) EUB0000595a TNK2; conditions: at 10 µM
[3] = molecular target: BMP-2-inducible protein kinase (Homo sapiens) (UniProt Q9NSY1); assay: Selectivity interaction (Kinase panel (DSF assay)) EUB0001559a BMP2K
[4] = molecular target: T2, Serine/threonine-protein kinase Nek1 (Homo sapiens) (UniProt Q96PY6); assay: Selectivity interaction (KinomeScan (DiscoverX)) EUB0001079a NEK1; conditions: at 1 µM
T2 sequence (whole entry): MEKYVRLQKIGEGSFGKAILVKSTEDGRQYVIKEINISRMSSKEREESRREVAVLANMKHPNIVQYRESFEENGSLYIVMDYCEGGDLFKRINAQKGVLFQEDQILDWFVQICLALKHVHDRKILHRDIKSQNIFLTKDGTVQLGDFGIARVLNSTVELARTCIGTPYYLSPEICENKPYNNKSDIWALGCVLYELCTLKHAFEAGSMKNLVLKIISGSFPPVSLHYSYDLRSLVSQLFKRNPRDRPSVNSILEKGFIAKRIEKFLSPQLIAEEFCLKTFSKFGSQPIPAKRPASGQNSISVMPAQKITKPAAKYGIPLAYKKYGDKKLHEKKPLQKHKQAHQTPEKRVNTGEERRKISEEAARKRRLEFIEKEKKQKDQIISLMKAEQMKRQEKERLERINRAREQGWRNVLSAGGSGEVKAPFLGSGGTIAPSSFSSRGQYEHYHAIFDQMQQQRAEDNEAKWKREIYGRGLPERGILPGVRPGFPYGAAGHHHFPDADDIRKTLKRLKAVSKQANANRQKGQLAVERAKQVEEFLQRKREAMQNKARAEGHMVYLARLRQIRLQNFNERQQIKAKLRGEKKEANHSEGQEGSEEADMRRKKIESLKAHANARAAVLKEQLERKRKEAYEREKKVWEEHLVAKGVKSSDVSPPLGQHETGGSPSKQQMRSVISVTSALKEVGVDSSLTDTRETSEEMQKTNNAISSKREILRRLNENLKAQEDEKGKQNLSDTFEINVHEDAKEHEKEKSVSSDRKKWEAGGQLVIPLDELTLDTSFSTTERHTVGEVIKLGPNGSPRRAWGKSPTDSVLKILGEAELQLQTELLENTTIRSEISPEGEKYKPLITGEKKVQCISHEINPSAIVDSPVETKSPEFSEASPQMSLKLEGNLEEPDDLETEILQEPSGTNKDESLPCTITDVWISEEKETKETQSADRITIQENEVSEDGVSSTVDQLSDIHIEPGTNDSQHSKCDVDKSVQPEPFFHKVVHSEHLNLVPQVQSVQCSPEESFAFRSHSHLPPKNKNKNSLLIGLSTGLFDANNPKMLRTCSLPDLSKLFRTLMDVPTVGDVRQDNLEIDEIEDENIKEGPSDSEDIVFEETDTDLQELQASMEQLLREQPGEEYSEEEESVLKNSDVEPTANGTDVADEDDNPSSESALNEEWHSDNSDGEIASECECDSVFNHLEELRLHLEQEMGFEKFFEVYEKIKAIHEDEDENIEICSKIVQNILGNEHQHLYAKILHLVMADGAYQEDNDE

[5] = molecular target: Vascular endothelial growth factor receptor 2 (Homo sapiens, UniProt P35968); assay: Selectivity interaction (KinomeScan (DiscoverX)) EUB0001079a KDR; conditions: at 1 µM
[6] = molecular target: T3, Membrane-associated tyrosine- and threonine-specific cdc2-inhibitory kinase (Homo sapiens) (UniProt Q99640); assay: Selectivity interaction (KinomeScan (DiscoverX)) EUB0001049a PKMYT1; conditions: at 1 µM
T3 sequence (whole entry): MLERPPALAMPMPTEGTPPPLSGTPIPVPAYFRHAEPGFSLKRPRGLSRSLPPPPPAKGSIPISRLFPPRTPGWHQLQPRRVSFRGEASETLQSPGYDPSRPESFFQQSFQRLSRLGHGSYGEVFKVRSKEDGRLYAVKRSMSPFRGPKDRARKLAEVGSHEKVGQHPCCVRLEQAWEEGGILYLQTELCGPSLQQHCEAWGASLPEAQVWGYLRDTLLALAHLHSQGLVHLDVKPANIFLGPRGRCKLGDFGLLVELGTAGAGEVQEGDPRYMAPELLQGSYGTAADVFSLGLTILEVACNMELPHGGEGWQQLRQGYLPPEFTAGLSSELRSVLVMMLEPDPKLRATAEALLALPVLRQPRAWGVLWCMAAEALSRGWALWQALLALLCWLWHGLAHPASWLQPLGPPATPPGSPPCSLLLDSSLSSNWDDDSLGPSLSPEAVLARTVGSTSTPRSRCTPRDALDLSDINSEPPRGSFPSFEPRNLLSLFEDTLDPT

[7] = molecular target: Ribosomal protein S6 kinase alpha-4 (Homo sapiens) (UniProt O75676); assay: Selectivity interaction (ActivX KiNativ screen (ex vivo kinase selectivity in human PBMCs)) EUB0001619a RPS6KA4; format: cell-based; conditions: PBMC, at 1 µM
[8] = molecular target: Serine/threonine-protein kinase PLK2 (Homo sapiens, UniProt Q9NYY3); assay: Selectivity interaction (KinomeScan (DiscoverX)) EUB0000607a PLK2; conditions: at 10 µM
[9] = molecular target: Tyrosine-protein kinase Lck (Homo sapiens, UniProt P06239); assay: Selectivity interaction (SelectScreen profiling (Invitrogen)) EUB0000607a LCK; conditions: at 2 µM
[10] = molecular target: Cyclin-dependent kinase 5 (Homo sapiens, UniProt Q00535); assay: Selectivity interaction (ActivX KiNativ screen (kinase selectivity in THP-1 cell lysates)) EUB0000639a CDK5; format: subcellular; conditions: lysate
[11] = molecular target: Death-associated protein kinase 1 (Homo sapiens, UniProt P53355); assay: Selectivity interaction (KinomeScan (DiscoverX)) EUB0000655a DAPK1; conditions: at 10 µM
Sequence of Death-associated protein kinase 1 (P53355 whole entry, looked up): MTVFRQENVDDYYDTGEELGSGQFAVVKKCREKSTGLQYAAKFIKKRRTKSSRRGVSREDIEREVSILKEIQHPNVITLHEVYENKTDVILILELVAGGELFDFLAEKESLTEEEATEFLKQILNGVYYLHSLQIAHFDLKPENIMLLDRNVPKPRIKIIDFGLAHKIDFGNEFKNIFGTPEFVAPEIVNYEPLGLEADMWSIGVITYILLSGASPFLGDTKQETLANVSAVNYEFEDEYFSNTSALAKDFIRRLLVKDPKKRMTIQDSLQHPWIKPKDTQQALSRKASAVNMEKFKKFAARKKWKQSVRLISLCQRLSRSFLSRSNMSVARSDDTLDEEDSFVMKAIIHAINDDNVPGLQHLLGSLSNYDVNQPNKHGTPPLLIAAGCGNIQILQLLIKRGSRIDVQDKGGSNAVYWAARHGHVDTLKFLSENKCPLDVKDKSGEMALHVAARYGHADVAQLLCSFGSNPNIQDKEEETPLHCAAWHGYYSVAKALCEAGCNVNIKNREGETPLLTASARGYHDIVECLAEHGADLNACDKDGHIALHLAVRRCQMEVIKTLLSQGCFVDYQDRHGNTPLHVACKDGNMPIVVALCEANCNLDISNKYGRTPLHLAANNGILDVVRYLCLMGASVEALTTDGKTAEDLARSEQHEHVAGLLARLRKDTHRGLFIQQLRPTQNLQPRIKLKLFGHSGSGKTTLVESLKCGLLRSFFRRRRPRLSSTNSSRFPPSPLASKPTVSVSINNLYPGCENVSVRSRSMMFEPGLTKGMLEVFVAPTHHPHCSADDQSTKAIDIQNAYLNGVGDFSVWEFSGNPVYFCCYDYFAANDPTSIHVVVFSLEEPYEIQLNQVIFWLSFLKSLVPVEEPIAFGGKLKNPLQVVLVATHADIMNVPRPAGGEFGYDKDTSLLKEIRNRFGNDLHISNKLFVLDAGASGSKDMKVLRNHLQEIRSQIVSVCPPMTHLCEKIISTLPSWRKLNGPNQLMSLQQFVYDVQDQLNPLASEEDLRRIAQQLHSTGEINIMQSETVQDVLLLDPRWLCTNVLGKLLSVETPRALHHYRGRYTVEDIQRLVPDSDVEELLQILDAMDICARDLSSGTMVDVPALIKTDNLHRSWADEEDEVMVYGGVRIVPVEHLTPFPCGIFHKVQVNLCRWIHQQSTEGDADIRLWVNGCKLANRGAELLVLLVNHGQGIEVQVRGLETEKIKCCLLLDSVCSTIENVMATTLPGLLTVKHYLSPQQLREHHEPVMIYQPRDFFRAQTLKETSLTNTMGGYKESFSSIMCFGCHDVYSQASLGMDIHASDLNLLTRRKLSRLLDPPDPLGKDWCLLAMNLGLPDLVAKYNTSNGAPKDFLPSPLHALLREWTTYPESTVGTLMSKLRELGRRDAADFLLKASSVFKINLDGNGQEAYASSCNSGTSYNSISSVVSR

Sequence of Cyclin-dependent kinase 5 (Q00535 whole entry, looked up): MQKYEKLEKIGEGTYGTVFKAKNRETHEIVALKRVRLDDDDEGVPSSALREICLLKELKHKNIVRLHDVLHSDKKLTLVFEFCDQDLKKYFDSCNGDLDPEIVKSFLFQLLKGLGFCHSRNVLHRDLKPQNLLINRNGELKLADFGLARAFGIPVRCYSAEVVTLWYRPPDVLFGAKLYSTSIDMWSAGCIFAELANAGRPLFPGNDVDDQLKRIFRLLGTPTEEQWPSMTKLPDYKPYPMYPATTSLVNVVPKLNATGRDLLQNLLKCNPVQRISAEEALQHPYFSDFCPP
Sequence of Tyrosine-protein kinase Lck (P06239 2-509 limits assumed): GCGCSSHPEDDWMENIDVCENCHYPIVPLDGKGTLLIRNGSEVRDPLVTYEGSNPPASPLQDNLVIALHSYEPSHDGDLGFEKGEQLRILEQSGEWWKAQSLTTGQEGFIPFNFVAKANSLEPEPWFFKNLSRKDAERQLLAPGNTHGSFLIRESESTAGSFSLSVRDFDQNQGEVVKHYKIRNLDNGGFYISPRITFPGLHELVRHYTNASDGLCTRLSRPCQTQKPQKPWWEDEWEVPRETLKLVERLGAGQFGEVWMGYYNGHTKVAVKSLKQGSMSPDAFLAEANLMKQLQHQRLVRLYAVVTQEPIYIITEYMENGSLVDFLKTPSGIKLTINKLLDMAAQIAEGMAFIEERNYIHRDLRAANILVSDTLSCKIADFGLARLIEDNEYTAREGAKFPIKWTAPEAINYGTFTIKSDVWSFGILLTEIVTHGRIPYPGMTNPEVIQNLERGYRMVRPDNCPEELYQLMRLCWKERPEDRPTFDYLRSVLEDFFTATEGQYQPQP
Sequence of Serine/threonine-protein kinase PLK2 (Q9NYY3 whole entry, looked up): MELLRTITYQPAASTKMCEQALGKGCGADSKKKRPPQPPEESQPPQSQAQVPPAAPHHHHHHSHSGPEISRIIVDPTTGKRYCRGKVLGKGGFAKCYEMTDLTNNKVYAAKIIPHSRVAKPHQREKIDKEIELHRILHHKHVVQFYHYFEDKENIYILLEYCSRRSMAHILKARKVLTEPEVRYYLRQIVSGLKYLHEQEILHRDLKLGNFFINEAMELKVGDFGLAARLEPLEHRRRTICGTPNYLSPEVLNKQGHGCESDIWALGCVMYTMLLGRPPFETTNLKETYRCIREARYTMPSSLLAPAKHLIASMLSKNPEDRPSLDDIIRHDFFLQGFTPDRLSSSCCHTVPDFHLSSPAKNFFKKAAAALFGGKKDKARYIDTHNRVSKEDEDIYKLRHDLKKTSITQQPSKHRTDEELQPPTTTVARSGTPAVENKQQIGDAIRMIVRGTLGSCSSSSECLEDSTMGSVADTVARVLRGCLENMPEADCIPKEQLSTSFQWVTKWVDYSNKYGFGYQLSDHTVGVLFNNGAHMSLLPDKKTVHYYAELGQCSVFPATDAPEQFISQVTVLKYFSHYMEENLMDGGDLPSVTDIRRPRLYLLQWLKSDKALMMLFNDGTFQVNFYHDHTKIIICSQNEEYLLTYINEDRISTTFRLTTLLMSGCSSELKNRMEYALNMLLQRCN
Sequence of BMP-2-inducible protein kinase (Homo sapiens) (Q9NSY1 whole entry, looked up): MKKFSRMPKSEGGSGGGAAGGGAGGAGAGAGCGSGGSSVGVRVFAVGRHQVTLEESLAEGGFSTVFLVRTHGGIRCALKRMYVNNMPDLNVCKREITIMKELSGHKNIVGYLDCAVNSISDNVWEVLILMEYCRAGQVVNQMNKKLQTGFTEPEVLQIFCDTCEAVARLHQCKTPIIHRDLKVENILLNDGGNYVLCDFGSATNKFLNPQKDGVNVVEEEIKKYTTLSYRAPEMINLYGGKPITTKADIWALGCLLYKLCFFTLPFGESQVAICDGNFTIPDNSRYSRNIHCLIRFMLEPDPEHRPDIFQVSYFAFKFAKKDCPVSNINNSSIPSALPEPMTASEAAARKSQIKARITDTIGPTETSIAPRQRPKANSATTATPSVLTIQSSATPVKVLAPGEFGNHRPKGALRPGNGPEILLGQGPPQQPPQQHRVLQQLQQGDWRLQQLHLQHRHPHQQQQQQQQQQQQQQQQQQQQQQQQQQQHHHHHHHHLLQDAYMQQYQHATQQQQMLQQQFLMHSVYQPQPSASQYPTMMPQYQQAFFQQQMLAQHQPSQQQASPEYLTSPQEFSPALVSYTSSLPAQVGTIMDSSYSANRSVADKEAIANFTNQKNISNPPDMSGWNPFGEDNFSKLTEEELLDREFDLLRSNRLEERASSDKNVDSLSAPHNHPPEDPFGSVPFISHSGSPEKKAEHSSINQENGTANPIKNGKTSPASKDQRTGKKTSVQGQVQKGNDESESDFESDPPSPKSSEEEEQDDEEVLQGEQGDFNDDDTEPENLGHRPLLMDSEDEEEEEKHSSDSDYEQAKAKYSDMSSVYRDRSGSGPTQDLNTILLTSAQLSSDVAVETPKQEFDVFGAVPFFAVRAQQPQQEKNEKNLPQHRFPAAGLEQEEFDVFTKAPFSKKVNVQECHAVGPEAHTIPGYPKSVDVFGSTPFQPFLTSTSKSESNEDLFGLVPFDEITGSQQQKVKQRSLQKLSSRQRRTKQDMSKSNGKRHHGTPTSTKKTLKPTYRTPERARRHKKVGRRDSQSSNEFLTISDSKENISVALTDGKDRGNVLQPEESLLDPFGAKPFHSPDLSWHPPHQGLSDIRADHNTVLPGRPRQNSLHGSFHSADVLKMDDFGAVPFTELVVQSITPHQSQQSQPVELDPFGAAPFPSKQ
Sequence of Ribosomal protein S6 kinase alpha-4 (Homo sapiens) (O75676 whole entry, looked up): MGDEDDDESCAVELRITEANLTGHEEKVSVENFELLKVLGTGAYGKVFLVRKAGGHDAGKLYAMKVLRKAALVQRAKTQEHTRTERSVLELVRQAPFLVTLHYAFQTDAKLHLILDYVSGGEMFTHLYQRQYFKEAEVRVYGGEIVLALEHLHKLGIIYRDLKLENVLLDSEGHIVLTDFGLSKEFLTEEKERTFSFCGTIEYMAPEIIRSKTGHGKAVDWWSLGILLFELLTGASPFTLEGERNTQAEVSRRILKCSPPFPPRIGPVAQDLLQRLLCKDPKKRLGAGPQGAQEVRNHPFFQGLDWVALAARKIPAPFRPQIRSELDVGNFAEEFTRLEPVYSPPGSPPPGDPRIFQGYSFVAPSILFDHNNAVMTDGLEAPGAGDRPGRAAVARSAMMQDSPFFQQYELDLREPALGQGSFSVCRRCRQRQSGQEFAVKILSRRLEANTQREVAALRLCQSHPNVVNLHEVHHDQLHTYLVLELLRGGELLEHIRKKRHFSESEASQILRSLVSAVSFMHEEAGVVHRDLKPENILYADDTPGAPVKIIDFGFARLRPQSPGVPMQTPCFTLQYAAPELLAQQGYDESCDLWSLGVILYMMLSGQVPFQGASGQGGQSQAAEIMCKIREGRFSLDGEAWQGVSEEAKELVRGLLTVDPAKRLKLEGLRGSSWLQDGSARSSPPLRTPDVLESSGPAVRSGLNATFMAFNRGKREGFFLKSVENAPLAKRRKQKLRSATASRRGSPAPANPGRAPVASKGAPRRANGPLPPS

SMILES: COc1cc(N(C)c2ccnc3ccc(C(F)(F)F)cc23)cc(OC)c1OC
- % binding [1]: 72%

SMILES: COCC(=O)NC/C=C/c1ccc2ncnc(Nc3ccc(Oc4ccc(C)nc4)c(C)c3)c2c1 [CP-724714]
- % of control [2]: 78%

SMILES: CN(C(=O)c1cnn2cccnc12)c1cc2c(cc1N1CCOCC1)C(=O)N(C[C@@H](F)C(C)(C)O)C2
- dTM [3]: -0.2 K

SMILES: Nc1cnc(N2CCc3cc(S(=O)(=O)Nc4c(F)cc(Cl)cc4F)cc(N4CCCC4=O)c32)nc1 [TP-020n]
- % of control [4]: 46%
- % of control [5]: 81%

SMILES: COc1cc(Nc2nc(C)cc(-c3cnn4nc(OC)ccc34)n2)cc(C(F)(F)F)c1
- % of control [6]: 97%

SMILES: N#Cc1cccc(-c2c[nH]c3ncnc(N4CCOCC4)c23)c1
- % of inhibition [7]: 20%

SMILES: CNC(=O)Nc1ccc(-c2nc(N3CC4CCC(C3)O4)c3cnn(C4CCC5(CC4)OCCO5)c3n2)cc1
- % of control [8]: 100%
- % of inhibition [9]: 10%

SMILES: CC[C@@H]1[C@H](F)C(=O)N[C@@H]1COc1nccc2cc(C(N)=O)c(OC)cc12 [ZIMLOVISERTIB]
- % of inhibition ([10]; at 0.01 µM): 3.6%
- % of inhibition ([10]; at 0.04 µM): 3.9%
- % of inhibition ([10]; at 0.2 µM): -0.2%
- % of inhibition ([10]; at 1 µM): 2.7%
- % of inhibition ([10]; at 5 µM): -6.9%

SMILES: CN(C)CCOc1ccc(-c2nc(-c3ccncc3)c(-c3ccc4c(c3)CC/C4=N\O)[nH]2)cc1
- % of control [11]: 99%
